Activity calls are given as the source filed them.

In assay [1] the target is T1, Runt-related transcription factor 1/Core-binding factor subunit beta (Homo sapiens, UniProt Q01196+Q13951). Description: inhibitors of RUNX1 Runt–CBFb-SMMHC binding, primary screen, biochemical, FRET, Cerulean-Runt, Venus-CBFb-SMMHC, uHTS (AID 1434).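 Also: partner is the CBFb-SMMHC leukemia fusion protein rather than wild-type CBFb.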 In kind it is protein assay.
The target of assay [2] is Glutathione-S-transferase (Schistosoma japonicum, UniProt Q26513). Description: biotin-GST/anti-GST TR-FRET signal inhibitors, dose response, artefact control for Vif-APOBEC3G degradation inhibitor project, biochemical (AID 1117362). The format is functional. On the technique in general: Time-resolved FRET reads energy transfer from a long-lived donor to a nearby acceptor.

In another assay the target is T2, Bcl-2-like protein 10 (Homo sapiens, UniProt Q9HD36).
T2 sequence (Q9HD36 whole entry): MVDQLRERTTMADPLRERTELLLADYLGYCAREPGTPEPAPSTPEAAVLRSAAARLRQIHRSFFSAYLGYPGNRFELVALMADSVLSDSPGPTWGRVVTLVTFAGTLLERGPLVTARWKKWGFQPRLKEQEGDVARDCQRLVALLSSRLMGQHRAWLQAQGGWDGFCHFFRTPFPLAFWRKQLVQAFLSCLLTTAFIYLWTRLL
In words: displacers of TR3 peptide from Bcl-B, primary screen, selectivity assay for Bfl-1 inhibitor project, biochemical, fluorescence polarization, FITC-TR3 peptide (AID 748).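 Also: fluorescence polarization from a fluorescein-labelled TR3 peptide binding purified Bcl-B.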

For assay [3], the target named is T1, Runt-related transcription factor 1/Core-binding factor subunit beta. Description: inhibitors of RUNX1 Runt–CBFb-SMMHC binding, biochemical, TR-FRET (AID 1438). In kind it is protein assay.
In assay [4] the target is T3, Kappa-type opioid receptor (Homo sapiens, UniProt P41145). Description: KOR antagonists by imaging, SAR follow-up, image-based (AID 2348). In kind it is functional.
The target of assay [5] is T4, Delta-type opioid receptor (Homo sapiens, UniProt P41143). Description: DOR agonists, SAR follow-up, image-based (AID 2370). In kind it is functional.
For assay [6], the target named is T5, Mu-type opioid receptor (Homo sapiens, UniProt P35372). In words: MOR agonists by imaging, SAR follow-up, image-based (AID 2352). The format is functional.
Assay [7] concerns the target T5, Mu-type opioid receptor. Description: MOR antagonists, SAR follow-up, image-based (AID 2420).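 Also: compounds added before stimulation of receptor with agonist DAMGO.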 In kind it is functional.
The target of assay [8] is T4, Delta-type opioid receptor. Description: DOR antagonists, SAR follow-up, image-based (AID 2357). The format is functional.
For assay [9], the target named is T3, Kappa-type opioid receptor. Description: KOR agonist analogs, imaging readout, SAR follow-up, image-based (AID 2359). The format is functional.
Assay [10] has as its target T3, Kappa-type opioid receptor. In words: kappa opioid receptor blockers, cell-based, luminescence, beta-arrestin, SAR follow-up (AID 2285). The format is functional.
Assay [11] concerns the target T6, Tyrosine-protein phosphatase non-receptor type 7 (Homo sapiens, UniProt P35236).
T6 sequence (P35236 whole entry): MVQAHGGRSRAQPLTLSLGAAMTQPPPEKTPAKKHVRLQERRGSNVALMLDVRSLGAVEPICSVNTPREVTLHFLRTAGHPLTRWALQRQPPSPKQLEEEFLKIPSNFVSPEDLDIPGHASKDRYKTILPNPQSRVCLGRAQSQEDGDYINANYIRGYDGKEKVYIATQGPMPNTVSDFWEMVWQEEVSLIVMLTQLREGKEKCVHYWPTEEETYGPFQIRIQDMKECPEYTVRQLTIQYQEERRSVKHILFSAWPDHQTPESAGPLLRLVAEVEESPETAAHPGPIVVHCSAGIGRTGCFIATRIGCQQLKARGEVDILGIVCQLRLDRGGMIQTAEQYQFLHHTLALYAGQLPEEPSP
The format is functional.

The next assay addresses Troponin, cardiac muscle (Homo sapiens, UniProt P19429+P45379+P63316). In words: Fluorescence-based biochemical high throughput dose response assay for activators of the calcium sensitivity of cardiac Regulated Thin Filaments (RTF). [Related pubchem assays (depositor defined):AID493008, AID493018, AID504382, AID504383]. In kind it is protein-complex assay.
Assay [12] addresses T7, Endoribonuclease toxin MazF (Escherichia coli K-12, UniProt P0AE70).
T7 sequence (P0AE70 whole entry): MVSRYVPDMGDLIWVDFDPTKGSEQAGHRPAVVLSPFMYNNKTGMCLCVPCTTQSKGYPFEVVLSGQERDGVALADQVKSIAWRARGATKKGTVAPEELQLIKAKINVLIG
Description: fluorescent RNA oligo signal without MazF, dose response, counter-screen for MazEF activator project, biochemical, fluorescence, single-stranded RNase substrate (AID 588502). In kind it is functional. (A counterscreen serves to expose hits that act by an unwanted route or on another target.)

For assay [13], the target named is T8, Tyrosine-protein phosphatase non-receptor type 22 (Homo sapiens, UniProt Q9Y2R2).
T8 sequence (Q9Y2R2 whole entry): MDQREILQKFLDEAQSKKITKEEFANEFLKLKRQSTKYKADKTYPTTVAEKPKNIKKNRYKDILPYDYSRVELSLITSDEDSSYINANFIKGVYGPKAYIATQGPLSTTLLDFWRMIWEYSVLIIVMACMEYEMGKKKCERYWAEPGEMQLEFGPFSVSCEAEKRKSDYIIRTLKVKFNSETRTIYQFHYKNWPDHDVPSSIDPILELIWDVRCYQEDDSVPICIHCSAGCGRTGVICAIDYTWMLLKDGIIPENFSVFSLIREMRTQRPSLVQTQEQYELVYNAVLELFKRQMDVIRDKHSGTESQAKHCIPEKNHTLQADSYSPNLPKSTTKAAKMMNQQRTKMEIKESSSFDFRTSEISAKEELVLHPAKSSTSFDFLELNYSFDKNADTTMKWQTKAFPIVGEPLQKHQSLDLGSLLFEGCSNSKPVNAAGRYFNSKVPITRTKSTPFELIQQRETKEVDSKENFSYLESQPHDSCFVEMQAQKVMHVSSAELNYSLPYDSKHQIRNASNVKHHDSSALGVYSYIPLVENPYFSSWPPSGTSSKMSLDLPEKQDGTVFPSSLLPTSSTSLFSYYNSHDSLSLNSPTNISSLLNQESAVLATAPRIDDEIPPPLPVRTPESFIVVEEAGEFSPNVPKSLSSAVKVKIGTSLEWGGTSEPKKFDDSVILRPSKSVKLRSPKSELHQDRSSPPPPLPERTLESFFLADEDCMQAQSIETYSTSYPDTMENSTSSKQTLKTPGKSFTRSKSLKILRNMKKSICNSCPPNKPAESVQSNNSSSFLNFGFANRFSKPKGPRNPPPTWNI
In kind it is functional.

The target of assay [14] is T7, Endoribonuclease toxin MazF. Description: MazF toxin RNase activators, dose response, biochemical, fluorescence, single-stranded RNA substrate, uHTS hits (AID 588481). The format is functional.
The target of assay [15] is T8, Tyrosine-protein phosphatase non-receptor type 22. The format is functional. The source holds these as a separate data set.
Assay [16] concerns the target T9, Cannabinoid receptor 2 (Homo sapiens, UniProt P34972). Description: SAR analysis of antagonists of the Cannabinoid Receptor 2 using an Image-Based Assay - Set 2. [Related pubchem assays (depositor defined):AID1961, AID1965]. The format is functional.
The target in assay [17] is T9, Cannabinoid receptor 2. Description: SAR analysis of agonists of the Cannabinoid Receptor 2 using an Image-Based Assay - Set 2. [Related pubchem assays (depositor defined):AID1961, AID1965]. The format is functional.
Assay [18] deals with T10, G-protein coupled receptor 55 (Homo sapiens, UniProt Q9Y2T6). Description: SAR analysis of selective Agonists of GPR55 using an Image-Based Assay. [Related pubchem assays (depositor defined):AID1961, AID1965]. The format is functional.
Assay [19] has as its target T10, G-protein coupled receptor 55. Description: GPR55 agonists via beta-arrestin recruitment, primary screen, imaging, U2OS cells, beta-arrestin-GFP redistribution (AID 1961). In kind it is functional. Background: Activated receptors often draw arrestin, which recruitment assays turn into a signal.
For a further assay, the target named is Cannabinoid receptor 1 (Homo sapiens, UniProt P21554). Description: SAR analysis of antagonists of the Cannabinoid Receptor 1 using an Image-Based Assay. [Related pubchem assays (depositor defined):AID1961, AID1965]. In kind it is functional.
Assay [20] concerns the target T11, Voltage-gated N-type calcium channel alpha-1B subunit/Amyloid beta A4 precursor protein-binding family A member 1 (Homo sapiens, UniProt Q00975+Q02410). In kind it is protein assay.
The target in assay [21] is Eukaryotic translation initiation factor 4E (Mus musculus, UniProt P63073). Description: eIF4E–eIF4G protein interaction inhibitors, dose response, biochemical, TR-FRET (AID 855).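 Also: potency for disrupting eIF4E binding to eIF4GI seen as loss of FRET.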 In kind it is functional.
Assay [22] addresses T12, Dual specificity protein phosphatase 6 (Rattus norvegicus, UniProt Q64346).
T12 sequence (Q64346 whole entry): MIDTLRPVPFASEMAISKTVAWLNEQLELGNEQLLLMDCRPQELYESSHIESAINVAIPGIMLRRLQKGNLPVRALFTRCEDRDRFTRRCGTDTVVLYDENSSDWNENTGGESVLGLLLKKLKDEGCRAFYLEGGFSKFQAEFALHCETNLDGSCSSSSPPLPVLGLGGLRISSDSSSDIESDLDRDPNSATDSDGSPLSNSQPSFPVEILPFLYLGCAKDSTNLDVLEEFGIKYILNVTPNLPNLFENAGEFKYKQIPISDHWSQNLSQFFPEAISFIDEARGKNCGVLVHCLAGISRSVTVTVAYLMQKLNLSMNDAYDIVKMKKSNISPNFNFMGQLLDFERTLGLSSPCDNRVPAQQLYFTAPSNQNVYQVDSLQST
In words: MKP-3 phosphatase inhibitors, primary screen, biochemical, rat enzyme, in vitro (AID 425).

Assay [23] deals with T13, Dual specificity protein phosphatase 3 (Homo sapiens, UniProt P51452). Description: VHR1 phosphatase inhibitors, biochemical (AID 1878).
Assay [24] deals with T11, Voltage-gated N-type calcium channel alpha-1B subunit/Amyloid beta A4 precursor protein-binding family A member 1. The format is protein assay. This is another data set of the same source.
For assay [25], the target named is T13, Dual specificity protein phosphatase 3. Description: VHR1 phosphatase inhibitors, primary screen, biochemical, absorbance, uHTS (AID 1654).
For assay [26], the target named is Induced myeloid leukemia cell differentiation protein Mcl-1 (Homo sapiens, UniProt Q07820). The format is functional.
Assay [27] has as its target Signal transducer and activator of transcription 1-alpha/beta (Homo sapiens, UniProt P42224). In words: STAT3 inhibitors, late-stage profile, late-stage follow-up, cell-based, STAT1 panel, qPCR, cytotoxicity, panel member STAT1 Inhibition (AID 2078).
The target of assay [28] is Signal transducer and activator of transcription 3 (Homo sapiens, UniProt P40763). Description: STAT3 inhibitors, late-stage profile, late-stage follow-up, cell-based, STAT1 panel, qPCR, cytotoxicity, panel member STAT3 Inhibition (AID 2078).
In assay [29] the target is T3, Kappa-type opioid receptor. In words: SAR analysis of small molecule agonists of the kappa opioid receptor via a luminescent beta-arrestin assay - Set 3. [Related pubchem assays (depositor defined):AID1777, AID1785, AID1786, AID1966, AID2133, AID2136, AID2284, AID2500]. The format is functional.

On to `CN1CCc2c(sc3c2c(NCc2ccco2)nc2nnnn23)C1`, for which the IC50 (as a rule, the concentration needed to halve the response being measured) in [1] was 80 µM (inactive); in assay [2] it was 31.1 µM (active); on Bcl-2-like protein 10, 38.8 µM (active); in [3] it was 56.3 µM (inactive).

On to `Cc1ccc(C)c(N2CCN(CCCNC(=O)CCn3c(=O)c4cccn4c4cccnc43)CC2)c1`, for which the IC50 in assay [4] was > 32 µM (inactive); at Mu-type opioid receptor [7], > 32 µM (inactive); in [8], > 32 µM (inactive); in assay [10], > 10 µM (inactive). In addition, the EC50 (in [5]; on Mu-type opioid receptor [6]; in [9]) was > 32 µM (inactive) each time.

As for `Cc1ccc(N=Nc2c(O)n(CN3CCOCC3)c3ccccc23)cc1`, the IC50 in assay [11], in assay [13] and in [15] was > 79.4 µM (inactive) each time. In addition, the EC50 (in general, the concentration that produces a half-maximal response) at Troponin, cardiac muscle was > 71.5 µM (inactive); in assay [12] it was 50.5 µM (inactive); in assay [14], 39.4 µM (inactive).

Consider `CN(C)S(=O)(=O)c1ccc(N2CCCC2)c(C(=O)N2CCN(c3ccc([N+](=O)[O-])cc3)CC2)c1`, for which the IC50 at Cannabinoid receptor 2 [16] and on Cannabinoid receptor 1 was > 32 µM (inactive) each time. For the same compound, the EC50 at Cannabinoid receptor 2 [17] is > 32 µM (inactive); in assay [18], 0.66 µM (active); in assay [19] it was 0.689 µM (active).

Take `COc1cc(/C=C2\SC(=O)N(c3ccc(Cl)cc3)C2=O)cc([N+](=O)[O-])c1O`: the IC50 in assay [20] is > 56.8 µM (not active); in assay [21], 50 µM (inactive); in [22] it was > 158 µM (not active); in [23], 2.3 µM (active); in assay [24], > 50 µM (inactive); in assay [25] it was 2.92 µM (active). Also, the IC50 in [26] was 3.07 µM (active).

As for `O=C(c1ccccc1)C1CCN(c2ncnc3sc4c(c23)CCCC4)CC1`, the values for the IC50 in [27] and in assay [28] were > 55.7 µM (inactive) and > 18.6 µM (inactive), respectively.

On to `Cc1ccc2nc(O)c(CN(Cc3ccccc3)C(=O)c3ccccn3)cc2c1`, for which, in [29], the half-maximal effective concentration (EC50) is 9.25 µM (active).

For the origin of these results see ChEMBL document CHEMBL1201862, “PubChem BioAssay data set” (2004).
